ChEMBL document CHEMBL3885881, “DrugMatrix”

Species on record: Rattus norvegicus
Experiment: DrugMatrix - Regimen: Daily Repeat
Type: toxicity, organism-based, Sprague-Dawley
Set-up: regimen Daily Repeat, gender Male, age 6-8 weeks
Details: in vivo, po, route oral GAVAGE, vehicle .5 % CMC; for ABSOLUTE BASOPHIL / ABSOLUTE EOSINOPHIL / ABSOLUTE LYMPHOCYTE / ABSOLUTE MONOCYTE / ABSOLUTE SEGMENTED NEUTROPHIL / BASOPHIL / EOSINOPHIL / ERYTHROCYTE COUNT / HEMATOCRIT / HEMOGLOBIN / LEUKOCYTE COUNT / LYMPHOCYTE / MEAN CORPUSCULAR HEMOGLOBIN / MEAN CORPUSCULAR HEMOGLOBIN CONCENTRATION / MEAN CORPUSCULAR VOLUME / MONOCYTE / NEUTROPHIL / NUCLEATED RED BLOOD CELLS / PLATELET COUNT: tissue Blood; for ALANINE AMINOTRANSFERASE / ALBUMIN / ALKALINE PHOSPHATASE / ASPARTATE AMINOTRANSFERASE / BLOOD UREA NITROGEN / CARBON DIOXIDE / CHLORIDE / CHOLESTEROL / CREATINE PHOSPHOKINASE / CREATININE / GLUCOSE / LACTATE DEHYDROGENASE / LIPASE / PHOSPHORUS / POTASSIUM / SODIUM / TOTAL BILIRUBIN / TOTAL PROTEIN / URIC ACID: tissue Plasma
[1] = 100 mg/kg, 72 h, dose level Low, time 3 day
[2] = 100 mg/kg, 120 h, dose level Low, time 5 day
[3] = 1500 mg/kg, 72 h, dose level High, time 3 day
[4] = 1500 mg/kg, 120 h, dose level High, time 5 day

CC(C)Oc1ccc2c(=O)c(-c3ccccc3)coc2c1 [IPRIFLAVONE]
ABSOLUTE BASOPHIL [1]: 0 CELLS/uL | ABSOLUTE EOSINOPHIL [1]: 99.33 CELLS/uL | ABSOLUTE LYMPHOCYTE [1]: 13635.33 CELLS/uL | ABSOLUTE MONOCYTE [1]: 415.67 CELLS/uL | ABSOLUTE SEGMENTED NEUTROPHIL [1]: 2916.33 CELLS/uL | BASOPHIL [1]: 0% | EOSINOPHIL [1]: 0.67% | ERYTHROCYTE COUNT [1]: 5.96 x10E6/uL | HEMATOCRIT [1]: 37.1% | HEMOGLOBIN [1]: 14.43 G/DL | LEUKOCYTE COUNT [1]: 17.07 x10E3/uL | LYMPHOCYTE [1]: 80.33% | MEAN CORPUSCULAR HEMOGLOBIN [1]: 24.23 pg | MEAN CORPUSCULAR HEMOGLOBIN CONCENTRATION [1]: 38.93 G/DL | MEAN CORPUSCULAR VOLUME [1]: 62.3 fL | MONOCYTE [1]: 2.33% | NEUTROPHIL [1]: 16.67% | NUCLEATED RED BLOOD CELLS [1]: 0 /100WBC | PLATELET COUNT [1]: 1359 x10E3/uL | ALANINE AMINOTRANSFERASE [1]: 44 u/L | ALBUMIN [1]: 4.53 G/DL | ALKALINE PHOSPHATASE [1]: 342.67 u/L | ASPARTATE AMINOTRANSFERASE [1]: 79.33 u/L | BLOOD UREA NITROGEN [1]: 19.67 mg/dL | CARBON DIOXIDE [1]: 24.33 mmol/L | CHLORIDE [1]: 97.67 MEQ/L | CHOLESTEROL [1]: 61.67 mg/dL | CREATINE PHOSPHOKINASE [1]: 241.33 u/L | CREATININE [1]: 0.23 mg/dL | GLUCOSE [1]: 153.33 mg/dL | LACTATE DEHYDROGENASE [1]: 129.33 u/L | LIPASE [1]: 9.67 u/L | PHOSPHORUS [1]: 11.17 mg/dL | POTASSIUM [1]: 7.3 MEQ/L | SODIUM [1]: 139.57 MEQ/L | TOTAL BILIRUBIN [1]: 0.23 mg/dL | TOTAL PROTEIN [1]: 6.17 G/DL | URIC ACID [1]: 2.23 mg/dL | ABSOLUTE BASOPHIL [2]: 0 CELLS/uL | ABSOLUTE EOSINOPHIL [2]: 57.67 CELLS/uL | ABSOLUTE LYMPHOCYTE [2]: 12897.67 CELLS/uL | ABSOLUTE MONOCYTE [2]: 315.33 CELLS/uL | ABSOLUTE SEGMENTED NEUTROPHIL [2]: 1196 CELLS/uL | BASOPHIL [2]: 0% | EOSINOPHIL [2]: 0.33% | ERYTHROCYTE COUNT [2]: 6.06 x10E6/uL | HEMATOCRIT [2]: 36.3% | HEMOGLOBIN [2]: 14.4 G/DL | LEUKOCYTE COUNT [2]: 14.47 x10E3/uL | LYMPHOCYTE [2]: 89% | MEAN CORPUSCULAR HEMOGLOBIN [2]: 23.8 pg | MEAN CORPUSCULAR HEMOGLOBIN CONCENTRATION [2]: 39.67 G/DL | MEAN CORPUSCULAR VOLUME [2]: 59.93 fL | MONOCYTE [2]: 2% | NEUTROPHIL [2]: 8.67% | NUCLEATED RED BLOOD CELLS [2]: 0.33 /100WBC | PLATELET COUNT [2]: 1112 x10E3/uL | ALANINE AMINOTRANSFERASE [2]: 47 u/L | ALBUMIN [2]: 4.3 G/DL | ALKALINE PHOSPHATASE [2]: 297.33 u/L | ASPARTATE AMINOTRANSFERASE [2]: 91.33 u/L | BLOOD UREA NITROGEN [2]: 15 mg/dL | CARBON DIOXIDE [2]: 25.33 mmol/L | CHLORIDE [2]: 100.67 MEQ/L | CHOLESTEROL [2]: 64 mg/dL | CREATINE PHOSPHOKINASE [2]: 318.67 u/L | CREATININE [2]: 0.19 mg/dL | GLUCOSE [2]: 158.67 mg/dL | LACTATE DEHYDROGENASE [2]: 474.67 u/L | LIPASE [2]: 9 u/L | PHOSPHORUS [2]: 11.83 mg/dL | POTASSIUM [2]: 6.46 MEQ/L | SODIUM [2]: 142.8 MEQ/L | TOTAL BILIRUBIN [2]: 0.13 mg/dL | TOTAL PROTEIN [2]: 5.93 G/DL | URIC ACID [2]: 1.7 mg/dL | ABSOLUTE BASOPHIL [3]: 0 CELLS/uL | ABSOLUTE EOSINOPHIL [3]: 0 CELLS/uL | ABSOLUTE LYMPHOCYTE [3]: 12351.67 CELLS/uL | ABSOLUTE MONOCYTE [3]: 95 CELLS/uL | ABSOLUTE SEGMENTED NEUTROPHIL [3]: 2086.67 CELLS/uL | BASOPHIL [3]: 0% | EOSINOPHIL [3]: 0% | ERYTHROCYTE COUNT [3]: 5.63 x10E6/uL | HEMATOCRIT [3]: 34.7% | HEMOGLOBIN [3]: 13.77 G/DL | LEUKOCYTE COUNT [3]: 14.53 x10E3/uL | LYMPHOCYTE [3]: 85% | MEAN CORPUSCULAR HEMOGLOBIN [3]: 24.47 pg | MEAN CORPUSCULAR HEMOGLOBIN CONCENTRATION [3]: 39.67 G/DL | MEAN CORPUSCULAR VOLUME [3]: 61.63 fL | MONOCYTE [3]: 0.67% | NEUTROPHIL [3]: 14.33% | NUCLEATED RED BLOOD CELLS [3]: 0.33 /100WBC | PLATELET COUNT [3]: 1247.33 x10E3/uL | ALANINE AMINOTRANSFERASE [3]: 44.33 u/L | ALBUMIN [3]: 4.3 G/DL | ALKALINE PHOSPHATASE [3]: 325 u/L | ASPARTATE AMINOTRANSFERASE [3]: 80.33 u/L | BLOOD UREA NITROGEN [3]: 15.33 mg/dL | CARBON DIOXIDE [3]: 27 mmol/L | CHLORIDE [3]: 101 MEQ/L | CHOLESTEROL [3]: 68.67 mg/dL | CREATINE PHOSPHOKINASE [3]: 256.33 u/L | CREATININE [3]: 0.15 mg/dL | GLUCOSE [3]: 149.33 mg/dL | LACTATE DEHYDROGENASE [3]: 181 u/L | LIPASE [3]: 9.33 u/L | PHOSPHORUS [3]: 12.3 mg/dL | POTASSIUM [3]: 6.1 MEQ/L | SODIUM [3]: 143.17 MEQ/L | TOTAL BILIRUBIN [3]: 0.1 mg/dL | TOTAL PROTEIN [3]: 5.67 G/DL | URIC ACID [3]: 1.53 mg/dL | ABSOLUTE BASOPHIL [4]: 0 CELLS/uL | ABSOLUTE EOSINOPHIL [4]: 0 CELLS/uL | ABSOLUTE LYMPHOCYTE [4]: 12219.33 CELLS/uL | ABSOLUTE MONOCYTE [4]: 47.33 CELLS/uL | ABSOLUTE SEGMENTED NEUTROPHIL [4]: 1100 CELLS/uL | BASOPHIL [4]: 0% | EOSINOPHIL [4]: 0% | ERYTHROCYTE COUNT [4]: 5.81 x10E6/uL | HEMATOCRIT [4]: 35.17% | HEMOGLOBIN [4]: 14.03 G/DL | LEUKOCYTE COUNT [4]: 13.37 x10E3/uL | LYMPHOCYTE [4]: 91.33% | MEAN CORPUSCULAR HEMOGLOBIN [4]: 24.23 pg | MEAN CORPUSCULAR HEMOGLOBIN CONCENTRATION [4]: 39.9 G/DL | MEAN CORPUSCULAR VOLUME [4]: 60.63 fL | MONOCYTE [4]: 0.33% | NEUTROPHIL [4]: 8.33% | NUCLEATED RED BLOOD CELLS [4]: 0 /100WBC | PLATELET COUNT [4]: 1215 x10E3/uL | ALANINE AMINOTRANSFERASE [4]: 48 u/L | ALBUMIN [4]: 4.47 G/DL | ALKALINE PHOSPHATASE [4]: 278.33 u/L | ASPARTATE AMINOTRANSFERASE [4]: 72.33 u/L | BLOOD UREA NITROGEN [4]: 14.67 mg/dL | CARBON DIOXIDE [4]: 25.67 mmol/L | CHLORIDE [4]: 102.33 MEQ/L | CHOLESTEROL [4]: 53 mg/dL | CREATINE PHOSPHOKINASE [4]: 231 u/L | CREATININE [4]: 0.16 mg/dL | GLUCOSE [4]: 153 mg/dL | LACTATE DEHYDROGENASE [4]: 157.33 u/L | LIPASE [4]: 9.67 u/L | PHOSPHORUS [4]: 11.6 mg/dL | POTASSIUM [4]: 6.76 MEQ/L | SODIUM [4]: 145.4 MEQ/L | TOTAL BILIRUBIN [4]: 0.2 mg/dL | TOTAL PROTEIN [4]: 6.17 G/DL | URIC ACID [4]: 1.9 mg/dL
